Test results published in patent US8039670B2, “Analogs of alpha galactosyceramide and uses thereof” (Ludwig Institute for Cancer Research, priority 2005, dated 2011).

Experiments:
[1] = tested on: IFN-γ from the iNKT cells; assay: IFN-γ ELISA of supernatants of DC/iNKT co-cultures; format: cell-based, human; conditions: analogs presented by DC
Experimental: (§1) Different analogs of α-GalCer as indicated or LPS were added to co-cultures of human DC and iNKT cells. (A) Maturation of the DC was assessed after 40 h, gating on CD11c positive cells. Histograms indicate the CD83 and CD86 profiles of DC from different treatments; the percentages indicate the percentage of CD83hi mature DC and the numbers in parenthesis, the mean fluorescence intensity of the population contained within the labeled gate. DC and iNKT cells were co-cultured in the presence of different analogs of α-GalCer for 24 hours. Supernatants were analyzed using ELISA for the presence of (B) IL-12p40 released by the DC and (C) IFN-γ from the iNKT cells. […] Cells were co-cultured in the presence of the indicated concentration of analog and the percentages of DC with increased CD83/CD80 are shown. […] Viability of α-GalCer or analog-pulsed DC was assessed after 40 h co-culture in the presence of iNKT cells by flow cytometry. Cells were stained with propidium iodide and the percentage of live CD11c gated cells remaining in the culture are shown.
(§2) Human monocyte-derived DC were pulsed with 150 ng of different inositol analogs and co-cultured with iNKT cells for 24 h. […] Numbers indicate the mean fluorescence intensity of the histogram gated on CD11c^+ cells.

E.G7-OVA tumour cells = assay: Prophylactic challenge with E.G7-OVA tumour cells after co-injection with OVA; format: in vivo, C57BL/6 mice; conditions: injected with OVA, challenge 7 days later with 1×10^6 E.G7-OVA s.c.
Experimental: (§3) (A) C57BL/6 mice were co-injected with 1 μg α-GalCer or analog and 800 μg OVA. 6 days later blood samples taken from the tail vein were stained directly ex vivo with fluorescent […]-K^b tetramers and an anti-CD8 antibody and analyzed by flow cytometry. Data are shown as tetramer positive cells as a percentage of CD8^+ cells. (B) 7 days after injection, the mice were challenged in a prophylactic setting with 1×10^6 E.G7-OVA tumour cells s.c. and the size of the tumour monitored over subsequent days.

OVA specific response = assay: Example C: OVA specific CTL response in mice injected with OVA and compound (tetramer); format: in vivo; conditions: 400 μg OVA with 1 μg compound i.v.
Experimental: Subject animals, five mice per group, received an intravenous injection of 400 μg of ovalbumin (OVA) together with 1 μg of one of the compounds of the invention under examination or an equivalent volume of PBS diluted vehicle solution. A subset of mice were injected with 25 μg of the molecule MPL (Sigma-Aldrich; extracted from Salmonella Minnesota) solubilized in PBS.
Following the injections, blood was obtained from lateral tail veins, and PBLs were isolated, using standard methods. The PBLs were then stained, directly, […], with tetrameric, H-2 Kb/OVA 257-264, H-21 Kb complexes, following Palmowski, et al., J. Immunol., 168:4391-4398 (2002), incorporated by reference. The tetramers were prepared in accordance with Whilan, et al., J. Immunol., 163:4342-4348 (1999), incorporated by reference.

p40 form of IL-12 = assay: Example A: IL-12 p40 ELISA as indication of DC stimulation; format: cell-based, human
[2] = tested on: DCs obtained from the spleen; assay: Example E: phenotyping of spleen DCs after tail vein injection (CD86); format: in vivo, mice; conditions: 1 μg tail vein, 24 h
Experimental: In brief, in each experiment, 1 μg of one of a selection of compounds of the invention was injected into the tail vein of subject mice. 24 h later spleen tissue was removed from the animals and gently teased through gauze into complete medium, supplemented with 5 mM of EDTA. Cells were enriched for CD11c by anti-CD11, magnetic beads using published techniques. Once enriched, they were assayed for maturation markers using antibody staining and flow cytometry. Non-specific staining was addressed by using an antibody specific for the Fc-RIII/II receptor.

IL-4 and IFN-γ = assay: Serum cytokines after i.v. injection into mice (ELISA); format: in vivo, C57BL/6 mice
Experimental: C57BL/6 or iNKT^−/− mice were injected i.v. with 1 μg of vehicle, α-GalCer, analog or 25 μg MPL. Twenty hours after injection splenocytes were stained with antibodies against CD11c, B220 and CD86 and analyzed by flow cytometry. (A) Maturation was assessed by the upregulation of CD86 at the cell surface, gating on DC (CD11c^+). Mean fluorescence intensity for each histogram is indicated. These are representative profiles of two independent experiments. 2, 6 and 18-24 h after injection as described, the mice were bled and the serum tested with ELISA for the presence of (B) IL-4 and (C) IFN-γ released in response to the analog.
Stimulation of iNKT cells by α-GalCer in the context of CD1d rapidly induces release of significant levels of a number of cytokines including IFN-γ and IL-4 (Burdin, Brossay et al, J Immunol, 1998, 161; 3271-81), IL-3 and GM-CSF (Leite-de-Moraes, Lisbonne et al, Eur J Immunol, 2002, 32; 1897-904) with other downstream cell-types including DC (Kitamura, Iwakabe et al, J Exp Med, 1999, 189; 1121-8) and NK cells (Carnaud, Lee et al, J Immunol, 1999, 163; 4647-50) being activated.

[3] = tested on: human monocyte derived DCs; assay: Example A: DC maturation markers in human monocyte derived DC with NKT cells (FACS); format: cell-based; conditions: 100 ng/ml, 36 hours, 10 DC/NKT cell
Experimental: The methodology of Salio, et al., J. Immunol., 167:1188-1197 (2001), incorporated by reference, was followed. In brief, 2×105 human monocyte derived DCs were pulsed with 100 ng/ml of one of Compounds 2, 3, αGal-Cer, or vehicle solution, as a control. For DC pulsing, each of arabinitol ceramide (Compound 1), threitol ceramide (Compound 3), glycerol ceramide (Compound 2) and αGal-Cer was solubilized in vehicle solution (0.5% Tween 20/PBS), and added to the medium of the DC cultures. […] After 36 hours, supernatant was removed from cultures and analyzed for the presence of known DC maturation markers CD83, CD80, CD86, CD25, and CD38, all of which were analyzed via FACS, using well known methods.

human DC = assay: DC maturation in co-culture of human DC and iNKT cells (flow cytometry CD83, CD86, CD38); format: cell-based
Experimental: as §1, §2
Immature human DC were cultured in the presence of a human iNKT cell clone with or without analogs or vehicle at different concentrations.
To compare the functions of high affinity α-GalCer, intermediate affinity threitolceramide with the known, low affinity analog OCH, the three compounds were titrated onto DC and used to present to iNKT cells. Maturation of DC and DC viability were examined after 48 h.

[4] = tested on: antigen-specific CD8^+ T cells; assay: OVA-specific CD8+ T cells after co-injection with OVA ([…]-Kb tetramer); format: in vivo, C57BL/6 mice; conditions: 1 μg with 800 μg OVA, 6 days
Experimental: as §3
Previously we, and others have shown that co-injection of model antigens such as OVA (Silk, Hermans et al, J Clin Invest, 2004, 114; 1800-11, Fujii, Shimizu et al, J Exp Med, 2003, 198; 267-79, Hermans, Silk et al, J Immunol, 2003, 171; 5140-7) and β-galactosidase (Silk, Hermans et al, J Clin Invest, 2004, 114; 1800-11) together with α-GalCer induces enhanced CD8^+, CD4^+ T cell and B cell responses. These were effective for therapy against tumour cells expressing the target antigen. The various analogs were co-injected with OVA into wild type mice and 6 days later the blood examined for the presence of antigen-specific CD8^+ T cells using fluorescent K^b-[…] tetramers.

[5] = tested on: OVA specific IgG antibodies; assay: Example D: OVA specific IgG antibodies in serum of immunized mice (ELISA); format: in vivo; conditions: ten days following immunization
Experimental: OVA protein coated ELISA plates, were prepared, using well known methods. Then, blood samples were taken, ten days following immunization, and serum was prepared.
The samples were taken from mice that had been immunized with OVA only, OVA and Compound 1, arabinitol ceramide, OVA and αGal-Cer, or OVA and Compound 2, glycerol ceramide. Additionally, mice were immunized with each of these schedules with MPL added. Serum IgG titers were measured by adding serial dilutions of mouse serum were detected using horseradish peroxidase (HRP) conjugated α-mouse IgG.

[6] = tested on: IL-12p40 released by the DC; assay: IL-12p40 ELISA of supernatants of DC/iNKT co-cultures; format: cell-based, human; conditions: DC/iNKT co-culture, 24 hours
Experimental: as §1, §2
Release of IL-12p40 (and bioactive p75) by DC is a marker of activation and is thought to play an important role in regulating the profile of the immune response generated in response to those DC (Trinchieri et al, Nat Rev Immunol, 2003, 3; 133-46).

[7] = target: T1, human invariant Vα24^+/Vβ11^+ TCR binding to hCD1d-lipid complex (Homo sapiens, UniProt P15813); assay: Surface plasmon resonance (Biacore) of soluble iNKT TCR binding to hCD1d monomers loaded with analogs; conditions: for Kd: equilibrium binding, read-out: Kd of the TCR binding to the monomer; for koff: kinetic measurement, read-out: rate of dissociation (Koff) between the TCR and the monomer
T1 construct: soluble human CD1d molecules; made in house
Experimental: Affinity and kinetics of iNKT TCR binding to hCD1d complexed with α-GalCer or OCH. Increasing concentrations from 0.4 μM to 194 μM (two-fold dilution) of iNKT TCR were injected for 5 seconds over the indicated hCD1d-GSL complexes. The binding responses of 5 concentrations are shown superimposed. The panels on the right show binding response at equilibrium.
The affinities of a soluble NKT cell TCR for human CD1d molecules refolded with different analogs of α-GalCer were measured. Equilibrium binding and kinetic measurements respectively were made for α-GalCer (A and B), threitolceramide (C and D), 4S-threitolceramide (E and F), 4R-threitolceramide (G and H). The Kd values (μM) were calculated from equilibrium binding. The Kon values shown were calculated from Koff and Kd.
We then assessed whether the length of the acyl and sphingosine chains could affect the affinity of iNKT TCR binding to glycolipid-CD1d complex. We refolded Vα24 and Vβ11 chains of the iNKT TCR as previously described (Gadola, Koch et al, J Exp Med, 2006, 203; 699-710) and used the purified and refolded iNKT TCR in surface plasmon resonance studies against immobilized biotinylated CD1d monomers loaded with either α-GalCer or OCH.
To characterize the affinity of analogs of α-GalCer, biotinylated hCD1d monomers were generated using previously described protocols (Karadimitris, Gadola et al, Proc Natl Acad Sci USA, 2001, 98; 3294-8) bound to the different analogs. Surface plasmon resonance (Biacore) analysis was performed using a soluble disulphide-linked human invariant Vα24^+/Vβ11^+ TCR (Gadola, Koch et al, J Exp Med, 2006, 203; 699-710) to measure the equilibrium dissociation constants (Kd) of binding of the TCR to different monomers (FIG. 3).

iNKT cell clone = assay: Cytokine release from iNKT cell clone stimulated with analog-pulsed C1R-human CD1d cells; format: cell-based; conditions: 24 h, titration
Experimental: FIG. 9 Inositol-based α-GalCer derivatives are functional in vitro. Human monocyte-derived DC were pulsed with 150 ng of different inositol analogs and co-cultured with iNKT cells for 24 h. […] Numbers indicate the mean fluorescence intensity of the histogram gated on CD11c^+ cells. 6-Deoxy and 6-Sulfono-myo-inositolceramide induce significant (B) IL-12p40 and (C) IFN-γ production by DC and iNKT cells respectively in the supernatants of co-cultured DC and iNKT cells. […] Release of (D) IFN-g and (E) IL-4 from iNKT cells after 24 h in culture with C1R-human CD1d cells pulsed with α-GalCer, 6-Deoxy- or 6-Sulfono-myo-inositolceramide.
The three inositol compounds were titrated on C1R cells expressing human CD1d and used to stimulate an iNKT cell clone.

Compound: CCCCCCCCCCCCCCCCCCCCCCCCCC(=O)N[C@@H](COCC(O)[C@@H](O)[C@@H](O)CO)[C@H](O)C(O)CCCCCCCCCCCCCC (stereo partly drawn) [Compound 1, Arabinitol Ceramide]
- IFN-γ released by the iNKT cells [1]: no detectable IFNγ
- tumour growth (E.G7-OVA tumour cells): little or no tumour growth
- OVA specific response (OVA specific response): enhancement of the OVA specific response
- IL-12 potency, fold less potent than Compound 3 (p40 form of IL-12): approximately 1000 fold
- induction of CD86 on spleen DC in vivo [2]: induced CD86 in vivo similarly
- skewing of cytokine response to Th2 (IL-4 and IFN-γ; compared with OCH): Neither compound showed a skewed Th2 cytokine response
- potency of cytokine induction compared with α-GalCer (IL-4 and IFN-γ; equivalent doses): less potent than α-GalCer at equivalent doses
- cytokine release in serum (IL-4, IFN-γ, IL-12p40/70) (IL-4 and IFN-γ; wild type mice, 1 μg i.v., 2, 6 and 18-24 h): detected in the serum with a similar time-course to that seen with α-GalCer
- induction of DC maturation markers (CD83, CD80, CD86, CD25, CD38) [3]: DC maturation markers are induced
- DC maturation (upregulation of CD83, CD86 and CD38) (human DC; human DC with iNKT cell clone, 24 hours): only weakly functional
- antigen-specific CD8+ T cell response [4]: induced a significant CD8^+ T cell response after 6 days, although less potently than α-GalCer
- OVA specific antibody response, adjuvant effect compared with MPL [5]: more effective as adjuvants than MPL
- IL-12p40 released [6]: little IL-12p40 was detected

Compound: CCCCCCCCCCCCCCCCCCCCCCCCCC(=O)N[C@@H](COC[C@H](O)[C@@H](O)[C@@H](O)c1ccccc1)[C@H](O)[C@H](O)CCCCCCCCCCCCCC [Compound 14, 4-(S)-Phenyl Threitol Ceramide]
- Kd [7]: 3.84 µM
- koff [7]: 0.65 s⁻¹

Compound: CCCCCCCCCCCCCCCCCCCCCCCCCC(=O)N[C@@H](COC[C@H](O)[C@@H](O)[C@H](O)c1ccccc1)[C@H](O)[C@H](O)CCCCCCCCCCCCCC [Compound 15, 4-(R)-Phenyl Threitol Ceramide]
- Kd [7]: 4.25 µM
- koff [7]: 0.506 s⁻¹

Compound: D-myo-Inositol Ceramide Salt [Compound 13]
- IFN-γ release from iNKT cells (iNKT cell clone): little or no IFN-γ release
- IL-4 release from iNKT cells (iNKT cell clone): detectable IL-4 was produced when higher concentrations of the compound were used

Compound: D-myo-Inositol Ceramide [Compound 12]
- IFN-γ release from iNKT cells (iNKT cell clone): significant levels of both cytokines
- IL-4 release from iNKT cells (iNKT cell clone): significant levels of both cytokines

Compound: Inositol Ceramide [Compound 10]
- IFN-γ release from iNKT cells (iNKT cell clone): little or no IFN-γ and IL-4
- IL-4 release from iNKT cells (iNKT cell clone): little or no IFN-γ and IL-4
- DC maturation and cytokine production from iNKT cells (first test) (human DC; data not shown): induced detectable DC maturation and cytokine production from iNKT cells
